Our source for the IC50 values is patent US20150045423A1, “COMPOUNDS FOR THE PREVENTION AND/OR TREATMENT OF OSTEOARTHROSIS” (Universitaetsklinikum Muenster, priority 2010, published 2015).

SMILES strings stand for the structures. pIC50: −log10 of the molar value.

The assay has as its system hyaluronan export from fibroblasts. Put plainly: Assay for hyaluronan transport/export inhibitors in fibroblast cell culture (hyaluronan in culture medium by ELISA). The assay is classed as cell-based. Particulars: 48 h, 2 days at 37° C., hyaluronan concentration in culture medium, read-out: Inhibition of hyaluronan export IC50. On the procedure: Assay for Hyaluronan Transport/Export Inhibitors in Fibroblast Cell Culture
Trypsinized fibroblasts were suspended in Dulbeccos medium at 10^5 cells/ml and 100 μl aliquots were transferred to a 96 well microtiter plate. The first row received 200 μl of the suspension and 20 μl of the inhibitors of the invention dissolved in phosphate buffered saline at concentrations of 4 mM. A serial dilution of the inhibitors was established by transfer of 100 μl aliquots from the first row to the following rows. All experiments were performed in duplicates. […] The cells were incubated for 2 days at 37° C. and aliquots (5 and 20 μl) of the culture medium were used for measurement of the hyaluronan concentration in the cell culture medium by an ELISA [125]. Briefly, the wells of a 96 well Covalink-NH-microtiter plate (NUNC) were coated with 100 μl of a mixture of […] of hyaluronan (HEALON®), 9.2 μg/ml of N-Hydroxysuccinimide-3-sulfonic acid and 615 μl/ml of 1-ethyl-3-(3-dimethylaminopropyl)-carbodiimide for 2 hours at room temperature and overnight at 4° C. The wells were washed three times with 2 M NaCl, 41 mM MgSO4, 0.05% Tween-20 in 50 mM phosphate buffered saline pH 7.2 (buffer A) and once with 2 M NaCl, 41 mM MgSO4, in phosphate buffered saline pH 7.2. Additional binding sites were blocked by incubation with 300 μl of 0.5% bovine serum albumin in phosphate buffered saline for 30 min at 37° C. Calibration of the assay was performed with standard concentrations of hyaluronan ranging from 15 ng/ml to 6000 ng/ml in equal volumes of culture medium as used for measurement of the cellular supernatants. A solution (50 μl) of the biotinylated hyaluronan binding fragment of aggrecan (Calbiochem) in 1.5 M NaCl, 0.3 M guanidinium hydrochloride, 0.08% bovine serum albumin 0.02% NaN3 25 mM phosphate buffer pH 7.0 was preincubated with 50 μl of the standard hyaluronan solutions or cellular supernatants for 1 hour at 37° C. […] The adsorption was read at 490 nm. The concentrations in the samples were calculated from a logarithmic regression curve of the hyaluronan standard solutions.
(An ELISA detects its analyte on a solid surface through an enzyme-linked reagent.)

On to `COc1cc(O)c(CC=C(C)C)c2c1C(=O)CC(c1ccc(O)cc1)O2` (stereo not drawn) [Isoxanthohumol], for which the pIC50 is 4.82.

As for `COc1cc(O)c(CC=C(C)C)c(O)c1C(=O)/C=C/c1ccc(O)cc1` [Xanthohumol], the pIC50 is 5.10.

On to `CC(C)=CCc1c(O)cc(O)c2c1OC(c1ccc(O)cc1)CC2=O` (stereo not drawn) [8-Prenylnaringenin], for which the pIC50 is 4.82.

The pIC50 is the IC50 on a negative log10 scale, so that one unit is a factor of ten.
